These are literature values, as cited in US20110224120A1, “WASHING, CLEANING, POST-TREATING OR AUXILIARY WASHING AGENT CONTAINING SILVER” (Henkel AG & Co. KGaA, priority 2008, published 2011).

For the data set the following is noted: Kanicky et al., Langmuir 2000, 16, 172-177.

With `CCCCCCCCCCCCCC(=O)O` [myristic acid], the pKa value is 8.15.
